Laboratory results reported in publication PMC7403315, “Cyclic peptide FXII inhibitor provides safe anticoagulation in a thrombosis model and in artificial lungs” (Nature Communications, 2020).
Values joined by “and” are separate entries in the source; they are usually repeats but may differ in a detail not shown here. Equal values may be shown once. Read-outs that look alike come from different tables or passages of the source. Starred links: 1 amine or outer side, 2 acyl side, 3 side chain; linkers in the order of their positions; H or OH if unused. Positions of bridges follow the written chain, without caps; N, C: chain ends. Non-standard residues stand in square brackets, D forms with d. Residues, ends and D or L forms follow the SMILES beside them. TATA = O=C(CC[*:1])N1CN(C(=O)CC[*:2])CN(C(=O)CC[*:3])C1; Phe(4-F) = N[C@@H](Cc1ccc(F)cc1)C(=O)O; β3hR = N=C(N)NCCC[C@H](N)CC(=O)O

Legend:
[1] = molecular target: T1, Mouse α-FXIIa (Mus musculus, UniProt Q80YC5); test: FXIIa protease inhibition assay with fluorogenic substrate Boc-Gln-Gly-Arg-AMC; format: biochemical; details: purified peptide without coumarin label; read-out: Ki mouse FXIIa
T1 construct: Mouse α-FXIIa; purchased Molecular Innovations MFXIIA
T1 sequence (Q80YC5 355-597 limits assumed): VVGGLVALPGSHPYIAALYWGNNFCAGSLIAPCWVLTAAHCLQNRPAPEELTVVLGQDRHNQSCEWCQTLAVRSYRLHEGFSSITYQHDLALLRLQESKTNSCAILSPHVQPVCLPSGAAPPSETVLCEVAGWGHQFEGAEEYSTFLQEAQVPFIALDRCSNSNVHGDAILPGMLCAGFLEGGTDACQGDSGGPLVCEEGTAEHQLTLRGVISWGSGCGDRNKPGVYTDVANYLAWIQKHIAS
T1 sequence (Q80YC5 20-354 limits assumed): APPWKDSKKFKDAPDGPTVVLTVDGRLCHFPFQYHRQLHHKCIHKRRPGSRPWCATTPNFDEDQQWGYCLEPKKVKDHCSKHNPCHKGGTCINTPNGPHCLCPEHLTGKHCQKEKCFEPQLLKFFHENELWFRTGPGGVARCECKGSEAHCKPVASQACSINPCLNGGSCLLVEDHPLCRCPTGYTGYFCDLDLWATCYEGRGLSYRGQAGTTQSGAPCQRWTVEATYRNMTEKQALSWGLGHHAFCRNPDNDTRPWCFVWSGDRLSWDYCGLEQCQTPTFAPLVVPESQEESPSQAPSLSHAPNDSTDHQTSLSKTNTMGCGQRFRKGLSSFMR
Experimental: (§1) In order to test the inhibitory activity of peptides without prior purification, we developed the following method. […] After solid-phase peptide synthesis, cleavage, and ether precipitation, the peptides were chemically cyclized and their Ki values were determined in a FXIIa activity assay using a fluorogenic substrate.
(§2) Protease inhibition assays
(§3) The inhibitory activity of peptides was determined by measuring the residual protease activity with a fluorogenic substrate. The assay was performed in buffer containing 10 mM Tris-Cl, pH […]
(§4) 1% (v/v) DMSO in a volume of 150 µl. FXIIa activity was measured with the fluorogenic substrate Boc-Gln-Gly-Arg-AMC (Bachem) at a final concentration of 50 µM. Mouse α-FXIIa (Molecular Innovations cat # MFXIIA) and human β-FXIIa (Molecular Innovations cat # HFXIIAB) were used at final concentrations of 0.4 nM. The reaction was pipetted as follows: 50 µl of bicyclic peptide in assay buffer were added to 50 µl of FXIIa in assay buffer and incubated for 10 minutes at 25°C before 50 µl of 150 µM fluorogenic substrate in assay buffer were added to measure the residual protease activity with an Infinite M200Pro fluorescence plate reader (excitation at 368 nm, emission at 467 nm; Tecan) for a period of 30 minutes with a read every minute at 25°C. The Tecan software i-control (version 1.1) was used for data analysis. Stock solutions of 1 mM bicyclic peptide were prepared by either dissolving the unpurified cyclization reaction with water or by dissolving purified and lyophilized peptide in water. The bicyclic peptides were serially diluted two-fold using assay buffer. Sigmoidal curves were fitted to the data using the following dose response equation (1), wherein x = peptide concentration, y = % protease activity, and p = Hill slope. IC50 values were derived from the fitted curve.
(§5) The inhibition constants (Ki) were calculated according to the equation of Cheng and Prusoff, Ki = IC50/(1+([S]0/Km), wherein IC50 is the functional strength of the inhibitor, [S]0 is the total substrate concentration, and Km is the Michaelis-Menten constant. […]
(§6) the substrate Boc-Gln-Gly-Arg-AMC. […]

[2] = molecular target: T2, human β-FXIIa (Homo sapiens, UniProt P00748); test: as above; format: biochemical
T2 construct: human β-FXIIa (Molecular Innovations cat #); purchased Molecular Innovations HFXIIAB; host or cells: human blood
Experimental: as §1, §2, §3, §4, §5, §6

[3] = purified peptide without coumarin label, read-out: Ki human FXIIa

T2 sequence (P00748 373-615 limits assumed, other chains not shown): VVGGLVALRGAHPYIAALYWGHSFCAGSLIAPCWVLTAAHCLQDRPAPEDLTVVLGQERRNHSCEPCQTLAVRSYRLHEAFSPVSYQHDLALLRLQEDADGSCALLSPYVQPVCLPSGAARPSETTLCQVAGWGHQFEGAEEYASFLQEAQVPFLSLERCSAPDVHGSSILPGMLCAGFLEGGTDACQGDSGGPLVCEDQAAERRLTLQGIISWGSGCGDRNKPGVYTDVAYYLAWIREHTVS

## CC(C)C[C@@H]1NC(=O)[C@H](CCC(N)=O)NC(=O)[C@H](CCCNC(=N)N)NC(=O)[C@@H]2CSCCC(=O)N3CN(CN(C3)C(=O)CCSC[C@H](NC(=O)[C@@H](CO)NC(=O)[C@H](N)CCCNC(=N)N)C(=O)N[C@@H](Cc3ccc(F)cc3)C(=O)N[C@@H](CCCNC(=N)N)C(=O)N[C@@H](CC(C)C)C(=O)N3CCC[C@H]3C(=O)N2)C(=O)CCSC[C@@H](C(=O)N[C@@H](CCCNC(=N)N)C(N)=O)NC(=O)C[C@H](CCCNC(=N)N)NC1=O [Arg8His reverted] (H-[dR][dS]C[Phe(4-F)]RLPCRQL[β3hR]CR-NH2; linker 3-8-13 via TATA)
[1]
  Ki: 0.91 ± 0.04 nM
[2]; [3]
  Ki: 0.31 ± 0.02 nM

## CC(C)C[C@@H]1NC(=O)[C@H](CCC(N)=O)NC(=O)[C@H](Cc2c[nH]cn2)NC(=O)[C@@H]2CSCCC(=O)N3CN(CN(C3)C(=O)CCSC[C@H](NC(=O)[C@@H](CO)NC(=O)[C@H](N)CCCNC(=N)N)C(=O)N[C@@H](Cc3ccc(F)cc3)C(=O)N[C@@H](CCCNC(=N)N)C(=O)N[C@@H](CC(C)C)C(=O)N3CCC[C@H]3C(=O)N2)C(=O)CCSC[C@@H](C(=O)N[C@@H](CCCNC(=N)N)C(N)=O)NC(=O)[C@H](CCCNC(=N)N)NC1=O [Arg11βhArg reverted] (HELM PEPTIDE1{[dR].[dS].C.[O=C([C@H](Cc1ccc(F)cc1)N[*:1])[*:2]].R.L.P.C.H.Q.L.R.C.R.[am]}|CHEM1{[O=C(CC[*:1])N1CN(C(=O)CC[*:2])CN(C(=O)CC[*:3])C1]}$PEPTIDE1,CHEM1,3:R3-1:R1|PEPTIDE1,CHEM1,8:R3-1:R2|PEPTIDE1,CHEM1,13:R3-1:R3$$$V2.0)
[1]
  Ki: 0.9 ± 0.4 nM
[2]; [3]
  Ki: 0.51 ± 0.1 nM

## CC(C)C[C@@H]1NC(=O)[C@H](CCC(N)=O)NC(=O)[C@H](CCCNC(=N)N)NC(=O)[C@@H]2CSCCC(=O)N3CN(CN(C3)C(=O)CCSC[C@H](NC(=O)[C@@H](N)CCCNC(=N)N)C(=O)N[C@@H](Cc3ccccc3)C(=O)N[C@@H](CCCNC(=N)N)C(=O)N[C@@H](CC(C)C)C(=O)N3CCC[C@H]3C(=O)N2)C(=O)CCSC[C@@H](C(=O)N[C@@H](CCCNC(=N)N)C(N)=O)NC(=O)C[C@H](CCCNC(=N)N)NC1=O [FXII700]
[2]; inhibitor 0.0976562 nM, 97.66 pM
  Residual activity of human FXIIa: 91.4189%
[2]; inhibitor 0.0976562 nM, read-out: Residual activity of human FXIIa
  remaining activity at 97.66 pM: 93.2%
[2]; inhibitor 0.195312 nM, 0.000195312 µM
  Residual activity of human FXIIa: 81.1824%
[2]; inhibitor 0.195312 nM, read-out: Residual activity of human FXIIa
  remaining activity at 0.000195312 µM: 90.3%
[2]; inhibitor 0.390625 nM, 0.000390625 µM
  Residual activity of human FXIIa: 72.286%
[2]; inhibitor 0.390625 nM, read-out: Residual activity of human FXIIa
  remaining activity at 0.000390625 µM: 82.1%
[2]; inhibitor 0.78125 nM, 0.00078125 µM
  Residual activity of human FXIIa: 58.8964%
[2]; inhibitor 0.78125 nM, read-out: Residual activity of human FXIIa
  remaining activity at 0.00078125 µM: 69.4%
[2]; inhibitor 1.5625 nM, 0.0015625 µM
  Residual activity of human FXIIa: 43.9302%
[2]; inhibitor 1.5625 nM, read-out: Residual activity of human FXIIa
  remaining activity at 0.0015625 µM: 53.9%
[2]; inhibitor 3.125 nM, 0.003125 µM
  Residual activity of human FXIIa: 29.5158% and 36.4925%
[2]; inhibitor 3.125 nM, read-out: Residual activity of human FXIIa
  remaining activity at 0.003125 µM: 34.3%
[2]; inhibitor 6.25 nM, 0.00625 µM
  Residual activity of human FXIIa: 18.0743% and 21.4703%
[2]; inhibitor 6.25 nM, read-out: Residual activity of human FXIIa
  remaining activity at 0.00625 µM: 20.1%
[2]; inhibitor 12.5 nM, 0.0125 µM
  Residual activity of human FXIIa: 10.9718% and 11.488%
[2]; inhibitor 12.5 nM, read-out: Residual activity of human FXIIa
  remaining activity at 0.0125 µM: 10.6%
[2]; inhibitor 25 nM, read-out: Residual activity of human FXIIa
  remaining activity at […]: 4.82%
[2]; inhibitor 50 nM, 0.05 µM
  Residual activity of human FXIIa: 4.39% and 3.29%
[2]; inhibitor 50 nM, read-out: Residual activity of human FXIIa
  remaining activity at 0.05 µM: 2.6%
[2]; inhibitor 100 nM, 0.1 µM
  Residual activity of human FXIIa: 1.025% and 3.134% and 1.703%
[2]; inhibitor 200 nM, read-out: Residual activity of human FXIIa
  remaining activity at 0.2 µM: 0.731%
[2]; inhibitor 400 nM, read-out: Residual activity of human FXIIa
  remaining activity at 0.4 µM: 0.3%
[2]; [3]
  Ki: 1.5 ± 0.1 nM

## CC(C)C[C@@H]1NC(=O)[C@H](CCC(N)=O)NC(=O)[C@H](CCCNC(=N)N)NC(=O)[C@@H]2CSCCC(=O)N3CN(CN(C3)C(=O)CCSC[C@H](NC(=O)[C@@H](N)CCCNC(=N)N)C(=O)N[C@@H](Cc3ccc(F)cc3)C(=O)N[C@@H](CCCNC(=N)N)C(=O)N[C@@H](CC(C)C)C(=O)N3CCC[C@H]3C(=O)N2)C(=O)CCSC[C@@H](C(=O)N[C@@H](CCCNC(=N)N)C(N)=O)NC(=O)[C@H](CCCNC(=N)N)NC1=O [FXII800]
[2]; inhibitor 0.12207 nM, 0.00012207 µM
  Residual activity of human FXIIa: 86.6295% and 91.1755%
[2]; inhibitor 0.12207 nM, read-out: Residual activity of human FXIIa
  remaining activity at 0.00012207 µM: 94.2%
[2]; inhibitor 0.244141 nM, 0.000244141 µM
  Residual activity of human FXIIa: 82.4999% and 82.653%
[2]; inhibitor 0.244141 nM, read-out: Residual activity of human FXIIa
  remaining activity at 0.000244141 µM: 87%
[2]; inhibitor 0.488281 nM, 0.000488281 µM
  Residual activity of human FXIIa: 69.0437% and 70.79%
[2]; inhibitor 0.488281 nM, read-out: Residual activity of human FXIIa
  remaining activity at 0.000488281 µM: 70.3%
[2]; inhibitor 1.95312 nM, 0.00195312 µM
  Residual activity of human FXIIa: 33.1082% and 35.3323%
[2]; inhibitor 1.95312 nM, read-out: Residual activity of human FXIIa
  remaining activity at 0.00195312 µM: 31.8%
[2]; inhibitor 3.90625 nM, 0.00390625 µM
  Residual activity of human FXIIa: 19.4631% and 21.6747%
[2]; inhibitor 3.90625 nM, read-out: Residual activity of human FXIIa
  remaining activity at 0.00390625 µM: 16.9%
[2]; inhibitor 7.8125 nM, 0.0078125 µM
  Residual activity of human FXIIa: 10.6116% and 10.9279%
[2]; inhibitor 7.8125 nM, read-out: Residual activity of human FXIIa
  remaining activity at 0.0078125 µM: 9.32%
[2]; inhibitor 15.625 nM, 0.015625 µM
  Residual activity of human FXIIa: 6.273% and 6.117%
[2]; inhibitor 15.625 nM, read-out: Residual activity of human FXIIa
  remaining activity at 0.015625 µM: 6.19%
[2]; inhibitor 31.25 nM, 0.03125 µM
  Residual activity of human FXIIa: 3.754% and 3.106%
[2]; inhibitor 31.25 nM, read-out: Residual activity of human FXIIa
  remaining activity at 0.03125 µM: 2.96%
[2]; inhibitor 62.5 nM, 0.0625 µM
  Residual activity of human FXIIa: 2.455% and 1.836%
[2]; inhibitor 62.5 nM, read-out: Residual activity of human FXIIa
  remaining activity at 0.0625 µM: 1.51%
[2]; inhibitor 125 nM, 0.125 µM
  Residual activity of human FXIIa: 1.461% and 1.1009%
[2]; inhibitor 125 nM, read-out: Residual activity of human FXIIa
  remaining activity at 0.125 µM: 1.19%
[2]; inhibitor 0.976562 / 0.976563 nM, 0.000976563 µM
  Residual activity of human FXIIa: 50.5477% and 54.5303%
[2]; inhibitor 0.976562 / 0.976563 nM, read-out: Residual activity of human FXIIa
  remaining activity at 0.000976563 µM: 50.5%
[2]; [3]
  Ki: 0.84 ± 0.03 nM

## CC(C)C[C@@H]1NC(=O)[C@H](CCC(N)=O)NC(=O)[C@H](Cc2c[nH]cn2)NC(=O)[C@@H]2CSCCC(=O)N3CN(CN(C3)C(=O)CCSC[C@H](NC(=O)[C@@H](CO)NC(=O)[C@H](N)CCCNC(=N)N)C(=O)N[C@@H](Cc3ccccc3)C(=O)N[C@@H](C)C(=O)N[C@@H](CC(C)C)C(=O)N3CCC[C@H]3C(=O)N2)C(=O)CCSC[C@@H](C(N)=O)NC(=O)[C@H](CCCNC(=N)N)NC1=O [FXII901] (HELM PEPTIDE1{[dR].[dS].C.F.A.L.P.C.H.Q.L.R.C.[am]}|CHEM1{[O=C(CC[*:1])N1CN(C(=O)CC[*:2])CN(C(=O)CC[*:3])C1]}$PEPTIDE1,CHEM1,3:R3-1:R1|PEPTIDE1,CHEM1,8:R3-1:R2|PEPTIDE1,CHEM1,13:R3-1:R3$$$V2.0)
[2]; negative control peptide, read-out: Ki FXIIa
  Ki: 39000 ± 14000 nM
